The values below come from patent publication US9701792B2, “Composite compositions and methods of preparing and using same” (THE REGENTS OF THE UNIVERSITY OF COLORADO, A BODY CORPORATE, priority 2014, dated 2017).

The series is described as follows: Volumetric shrinkage during photo-CuAAC reaction. It counts as physicochemical. The conditions noted are these: monomer (2) and 4-pentyl-1-ol in chloroform; azide/alkyne to CuCl2/PMDETA/I819 50:50:1:1. How it is done: The volumetric shrinkage behavior during the photo-CuAAC reaction was measured using monomer (2) in FIGS. 3 and 4-pentyl-1-ol in chloroform (molar ratio of azide/alkyne to CuCl2/PMDETA/I819 as 50:50:1:1, the same as the bulk model system). […] In certain embodiments, the total shrinkage is lower in the CuAAC polymerization because the formed triazole concentration is less than the required methacrylate concentration. With appropriate fillers, the composite shrinkage may be reduced further.

With `CC(C)(c1ccc(OCC(O)CN=[N+]=[N-])cc1)c1ccc(OCC(O)CN=[N+]=[N-])cc1` (stereo not shown) [monomer (2), bisphenol A di(3-azido-2-hydroxypropan-1-ol) ether], the “molar volume change per triazole formed” value amounted to 22.2 mL/mol.
